# Results from US4462992A, “Nitroimidazole radiosensitizers for hypoxic tumor cells and compositions thereof” (priority 1982, dated 1984).
# Read-outs that look alike come from different tables or passages of the source.
# What was measured:
# [1] = Pharmacokinetics, localization in tissue in mice bearing B16 melanoma; format: in vivo, mouse (C57/BL); settings: for concentration at 0.5 h / concentration at 1 h / Kp at 0.5 h / Kp at 1 h: mouse, ip, 1000 mg/kg; for concentration at 0.5 h / concentration at 1 h: 1 g/kg intraperitoneal
# Protocol: The drug solution was made in normal saline at a concentration of 50 mg/ml. The drug solution was injected intraperitoneally at a dose level of 1 g/kg to C57/BL mice bearing 15 day old B16 melanoma tumor. At 30 and 60 minute interval after the drug administration, mice were anesthetized, blood sample was taken directly by heart puncture and tumor and brain tissue were removed. Plasma was separated after centrifugation of the whole blood and extracted with methanol. Brain and tumor tissue were homogenized and also extracted with methanol. The methanol extracts were analyzed by reverse phase high-performance liquid chromatography employing 25% methanol as mobile phase. The peak was detected at 320 nm with a retention time of 2.3 min. The flow rate was 2 ml/min.
# hypoxic tumor cells = settings: cited from earlier work
# [2] = test system: Chinese hamster cells line V-79; assay: Radiosensitization (enhancement ratio, cobalt-60 irradiation of hypoxic cells); format: cell-based
# Protocol: (§1) Asynchronous monolayers of cultures of Chinese hamster cells line V-79 were employed in all experiments. The monolayers were derived from exponentially growing cultures. Methods of culturing and handling have been reported earlier by Cooke et al, Rad. Res. 65, 152 (1976). The plated cultures were rendered hypoxic in sealed dural containers capable of holding seven petri dishes, by purging with nitrogen (oxygen-free grade) for one hour. Irradiation was carried out by using a cobalt-60 source at a dose rate of approximately 240 rad/min according to the procedure described by Agrawal et al Rad. Res. 78:532 (1979). A dose of 1400 rad was given to hypoxic cells in glass petri dishes in the presence of a given drug concentration (2000 cells/dish). Cell survival was estimated from unirradiated toxic hypoxic cells exposed to the same drug concentration. Complete survival curves were obtained for each compound at the radiation doses of 400 to 3000 rad. The Do value was calculated for each compound and the ratio of the Do value for the hypoxic control cells to the Do value of the hypoxic drug treated cells provided the sensitized enhancement ratio of the corresponding agent.
# (§2) Cultures were incubated for 6 days at 37° C. in an atmosphere of 5% CO2. The resulting colonies were fixed in absolute ethanol and stained with methylene blue and counted.
# [3] = In vitro cytotoxicity in hypoxic cells (% survival); format: cell-based, Chinese hamster; settings: hamster, v-79 cells; for viability at 2 h, 100 µM / viability at 4 h, 100 µM: 0.1 mM; for viability at 2 h, 50 µM / viability at 4 h, 50 µM: 0.05 mM; for viability at 2 h, 250 µM / viability at 4 h, 250 µM: 0.25 mM
# Protocol: as §1, §2
# (§3) To determine toxicity in vitro, glass petri dishes containing approximately 200 Chinese hamster cells/dish were exposed to a range of concentrations of each drug for 2 hours and/or 4 hours at 37° C. Drug concentrations between 10 μM and 0.5 mM were employed initially.
# [4] = In vitro cytotoxicity in oxic cells (% survival); format: cell-based, Chinese hamster; settings: hamster, v-79 cells, oxic; for viability at 2 h, 1000 µM: 1.0 mM; for viability at 2 h, 5000 µM: 5.0 mM
# Protocol: as §1, §2, §3
# [5] = test system: hypoxic cells (Chinese hamster cells line V-79); assay: Differential toxicity to hypoxic cells at 4 hours; format: cell-based
# Protocol: as §1, §3
# [6] = test system: Chinese hamster cells line V-79 (oxic); assay: In vitro cytotoxicity in oxic cells (% survival); format: cell-based; settings: 2 hours
# Protocol: as §1, §2, §3
# [7] = 2 hours, read-out: In vitro cytoxicity in hypoxic cells (% survival at 2 hours)
# [8] = 4 hours, read-out: In vitro cytoxicity in hypoxic cells (% survival at 4 hours)
# [9] = 2 hours, 0.1 mM, read-out: In vitro cytoxicity in oxic cells (% survival at 2 hours)
# [10] = 2 hours, 0.5 mM, read-out: In vitro cytoxicity in oxic cells (% survival at 2 hours)
# [11] = 2 hours, read-out: In vitro cytoxicity in oxic cells (% survival at 2 hours)
# [12] = 4 hours, 0.01 mM, read-out: In vitro cytoxicity in hypoxic cells (% survival at 4 hours)
structure (smiles),measurement,setting,value
"O=[N+]([O-])c1nccn1[C@@H]1C=C[C@H](O)[C@@H](CO)O1 [1-(2',3'-didehydro-2',3'-dideoxy-α-D-erythro-hexopyranosyl)-2-nitroimidazole]",tumor concentration relative to brain (Tumor/Brain ratio),[1]; 30 and 60 min,approximately 3 fold
same,"Ratio of Brain/Plasma, change with time",[1]; 30 to 60 min,increased with time
same,"Ratio of Tumor/Plasma, change with time",[1]; 30 to 60 min,increased with time
same,Ratio of Tumor/Brain,[1]; 30 min,2.87
same,Ratio of Tumor/Brain,[1]; 60 min,2.88
same,concentration at 0.5 h,"[1]; b16 melanoma tumor, tumor, 30 min, read-out: (B16 melanoma)",293000 ng/g
same,concentration at 1 h,"[1]; b16 melanoma tumor, tumor, 60 min, read-out: (B16 melanoma)",346000 ng/g
same,concentration at 0.5 h,"[1]; brain, 30 min, read-out: Brain",102000 ng/g
same,concentration at 1 h,"[1]; brain, 60 min, read-out: Brain",120000 ng/g
same,Kp at 0.5 h,"[1]; brain/plasma, 30 min, read-out: Ratio of Brain/Plasma",0.097
same,Kp at 1 h,"[1]; brain/plasma, 60 min, read-out: Ratio of Brain/Plasma",0.18
same,concentration at 0.5 h,"[1]; plasma, 30 min, read-out: Plasma",1050 µg/mL
same,concentration at 1 h,"[1]; plasma, 60 min, read-out: Plasma",648 µg/mL
same,Kp at 0.5 h,"[1]; tumor/plasma, 30 min, read-out: Ratio of Tumor/plasma",0.278
same,Kp at 1 h,"[1]; tumor/plasma, 60 min, read-out: Ratio of Tumor/plasma",0.534
O=c1[nH]c(=O)n([C@H]2C[C@H](O)[C@@H](CO)O2)cc1Br [5-bromodeoxyuridine],selectivity for tumor cells,hypoxic tumor cells,poor selectivity
O=c1[nH]c(=O)n([C@H]2C[C@H](O)[C@@H](CO)O2)cc1F [5-flourodeoxyuridine],selectivity for tumor cells,hypoxic tumor cells,poor selectivity
"CC(=O)OC[C@H]1O[C@H](n2ccnc2[N+](=O)[O-])C=C[C@@H]1OC(C)=O [B, 1(4',6di-O--acetyl2',3didehydro-2',3dideoxy-D-erythro-hexopyranosyl)-2-ni roimidazole]",Radiosensitization (enhancement ratio in Chinese hamster cells),[2]; 0.5 mM,2.0
same,"viability at 2 h, 100 µM",[3]; [7],90.9%
same,"viability at 2 h, 500 µM","[3]; 2 hours, 0.5 mM, read-out: In vitro cytoxicity in hypoxic cells (% survival at 2 hours)",100%
same,"viability at 4 h, 100 µM",[3]; [8],96%
same,"viability at 4 h, 500 µM","[3]; 4 hours, 0.5 mM, read-out: In vitro cytoxicity in hypoxic cells (% survival at 4 hours)",60.3%
same,"viability at 2 h, 10 µM","[4]; 2 hours, 0.01 mM, read-out: In vitro cytoxicity in oxic cells (% survival at 2 hours)",106%
same,"viability at 2 h, 50 µM","[4]; 2 hours, 0.05 mM, read-out: In vitro cytoxicity in oxic cells (% survival at 2 hours)",100%
same,"viability at 2 h, 100 µM",[4]; [9],103%
same,"viability at 2 h, 500 µM",[4]; [10],100%
same,"viability at 4 h, 10 µM","[4]; 4 hours, 0.01 mM, read-out: In vitro cytoxicity in oxic cells (% survival at 4 hours)",100%
same,"viability at 4 h, 50 µM","[4]; 4 hours, 0.05 mM, read-out: In vitro cytoxicity in oxic cells (% survival at 4 hours)",100%
same,"viability at 4 h, 100 µM","[4]; 4 hours, 0.1 mM, read-out: In vitro cytoxicity in oxic cells (% survival at 4 hours)",101%
same,"viability at 4 h, 500 µM","[4]; 4 hours, 0.5 mM, read-out: In vitro cytoxicity in oxic cells (% survival at 4 hours)",102%
same,Differential toxicity to hypoxic cells at 4 hours,[5],Yes
"O=[N+]([O-])c1nccn1C1O[C@H](CO)[C@@H](O)[C@@H]1O (stereo partly drawn) [D, 1(D-Arabinofuranosyl)-2-nitroimidazole]",Radiosensitization (enhancement ratio in Chinese hamster cells),[2]; 1.0 mM,1.7
same,"viability at 2 h, 100 µM",[4]; [9],105%
same,"viability at 2 h, 500 µM",[4]; [10],104%
same,"viability at 2 h, 1000 µM",[4]; [11],99%
same,"viability at 2 h, 5000 µM",[4]; [11],116%
"O=C(OC[C@H]1O[C@H](n2ccnc2[N+](=O)[O-])[C@@H](OC(=O)c2ccccc2)[C@@H]1OC(=O)c1ccccc1)c1ccccc1 [E, 1(2',3',5tri-O--benzoylD-arabinofuranosyl)-2-nitroimidazole]",Radiosensitization (enhancement ratio in Chinese hamster cells),[2]; 0.05 (mM not given),1.0
same,"viability at 2 h, 50 µM",[3]; [7],84%
same,"viability at 2 h, 250 µM",[3]; [7],12%
same,"viability at 4 h, 10 µM",[3]; [12],80%
same,"viability at 4 h, 50 µM",[3]; [8],76%
same,"viability at 4 h, 100 µM",[3]; [8],46%
same,"viability at 4 h, 250 µM",[3]; [8],2.6%
"O=C(OC[C@H]1O[C@@H](n2ccnc2[N+](=O)[O-])[C@@H](OC(=O)c2ccccc2)[C@@H]1OC(=O)c1ccccc1)c1ccccc1 [F, 1(2',3',5tri-O--benzoylD-arabinofuranosyl)-2-nitroimidazole]",Radiosensitization (enhancement ratio in Chinese hamster cells),[2]; 0.1 mM,1.1
same,"viability at 2 h, 10 µM","[3]; 2 hours, 0.01 mM, read-out: In vitro cytoxicity in hypoxic cells (% survival at 2 hours)",102%
same,"viability at 2 h, 50 µM",[3]; [7],102%
same,"viability at 2 h, 100 µM",[3]; [7],97%
same,"viability at 2 h, 250 µM",[3]; [7],105%
same,"viability at 4 h, 10 µM",[3]; [12],103%
same,"viability at 4 h, 50 µM",[3]; [8],104%
same,"viability at 4 h, 100 µM",[3]; [8],89%
same,"viability at 4 h, 250 µM",[3]; [8],73%
"O=[N+]([O-])c1nccn1C1C[C@H](O)[C@@H](CO)O1 (stereo partly drawn) [G, 1(2-deoxy-D-erythro-pentofuranosyl)-2-nitroimidazole]",Radiosensitization (enhancement ratio in Chinese hamster cells),[2]; 1.0 mM,1.9
same,"viability at 2 h, 100 µM",[4]; [9],95.3%
same,"viability at 2 h, 500 µM",[4]; [10],88.9%
same,"viability at 2 h, 1000 µM",[4]; [11],93%
same,"viability at 2 h, 5000 µM",[4]; [11],82.4%
"O=[N+]([O-])c1nccn1C1C[C@H](O)[C@@H](CO)O1 (stereo partly drawn) [H, 1(2-deoxy-D-erythro-pentofuranosyl)-2-nitroimidazole]",Radiosensitization (enhancement ratio in Chinese hamster cells),[2]; 1.0 mM,1.9
same,In vitro cytoxicity in oxic cells (% survival at 2 hours),[6]; 0.1 mM,95.3%
same,In vitro cytoxicity in oxic cells (% survival at 2 hours),"[6]; 0.5 mM, 120 min, 500 µM",94.2%
same,In vitro cytoxicity in oxic cells (% survival at 2 hours),"[6]; 1.0 mM, 120 min, 1000 µM",98.2%
same,In vitro cytoxicity in oxic cells (% survival at 2 hours),"[6]; 5.0 mM, 120 min, 5000 µM",81.3%
"O=[N+]([O-])c1nccn1C1CCCO1 (stereo not shown) [I, 1-(Tetrahydro-2-furanyl)-2-nitroimidazole]",Radiosensitization (enhancement ratio in Chinese hamster cells),[2]; 1.0 mM,1.6
same,"viability at 2 h, 100 µM",[4]; [9],98.8%
same,"viability at 2 h, 500 µM",[4]; [10],101%
same,"viability at 2 h, 1000 µM",[4]; [11],87.1%
same,"viability at 2 h, 5000 µM",[4]; [11],79.5%
"O=[N+]([O-])c1nccn1C1CCCCO1 (stereo not shown) [J, 1-(Tetrahydro-2-pyranyl)-2-nitroimidazole]",Radiosensitization (enhancement ratio in Chinese hamster cells),[2]; 1.0 mM,1.7
same,"viability at 2 h, 100 µM",[4]; [9],106%
same,"viability at 2 h, 500 µM",[4]; [10],101%
same,"viability at 2 h, 1000 µM",[4]; [11],105%
same,"viability at 2 h, 5000 µM",[4]; [11],94.9%
"O=[N+]([O-])c1nccn1C1CCCC1O (stereo not shown) [K, 1-(2-Hydroxycyclopentyl)-2-nitroimidazole]",Radiosensitization (enhancement ratio in Chinese hamster cells),[2]; 1.0 mM,2.0
same,"viability at 2 h, 100 µM",[4]; [9],112%
same,"viability at 2 h, 500 µM",[4]; [10],110%
same,"viability at 2 h, 1000 µM",[4]; [11],107%
same,"viability at 2 h, 5000 µM",[4]; [11],94.7%
"O=[N+]([O-])c1nccn1C1CCCCC1O (stereo not shown) [L, 1-(2-Hydroxycyclohexyl)-2-nitroimidazole]",Radiosensitization (enhancement ratio in Chinese hamster cells),[2]; 1.0 mM,2.0
same,"viability at 2 h, 100 µM",[4]; [9],98.2%
same,"viability at 2 h, 500 µM",[4]; [10],90.3%
same,"viability at 2 h, 1000 µM",[4]; [11],86%
"O=[N+]([O-])c1nccn1COCCO [M, 1-[(2-hydroxyethoxy)methyl]-2-nitroimidazole]",Radiosensitization (enhancement ratio in Chinese hamster cells),[2]; 1.0 mM,2.1
same,"viability at 2 h, 100 µM",[4]; [9],99.5%
same,"viability at 2 h, 500 µM",[4]; [10],106%
same,"viability at 2 h, 1000 µM",[4]; [11],104%
